Consider 22 compounds from US11446287B2, “Compounds and methods for EP300 or CBP modulation and indications therefor” (Opna Immuno-Oncology SA, priority 2019, dated 2022).

pIC50: −log10 of the molar value.

In the test the target is T1, Recombinant human EP300 containing the bromodomain (EP300-BD (1040-1161)) (Homo sapiens, UniProt Q09472).
T1 construct: Recombinant human EP300 bromodomain (EP300-BD (1040-1161)); made in house; host or cells: E. coli BL21-CodonPlus (DE3), modified pET vector
T1 sequence (Q09472 1040-1161): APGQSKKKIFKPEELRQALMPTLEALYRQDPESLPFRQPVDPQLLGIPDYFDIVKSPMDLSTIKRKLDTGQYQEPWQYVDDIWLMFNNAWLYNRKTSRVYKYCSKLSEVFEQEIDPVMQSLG
In words: EP300 Alphascreen binding assay. The procedure: EP300 Alphascreen Binding Assay
Binding of compounds of Formula (I) with EP300 was assessed using Alphascreen™ binding assay. The inhibition of the interaction between the EP300 bromodomain and its acetylated target protein was measured quantitatively using recombinant EP300 protein, an acetylated Histone 3 peptide and AlphaScreen™ technology. In absence of inhibition of the EP300 protein bound to AlphaScreen™ nickel chelate acceptor beads can interact with the acetylated Histone 3 peptide which is immobilized by the AlphaScreen™ Streptavidin coated beads. This interaction brings donor and acceptor beads in proximity. The close proximity allows the singlet oxygen produced by laser excitation of the donor beads to reach the acceptor beads and generate a luminescence signal. EP300 inhibitors result in a decrease in the proximity signal through an inhibition of the EP300—acetylated peptide interaction.
Recombinant human EP300 containing the bromodomain (EP300-BD (1040-1161)) was prepared and purified as described in protein expression and purification session. The peptide is human Histone H345-64K56Ac-Biotin (Anaspec CA, USA).
Protocol for EP300 assay: All components were prepared in buffer composed of 50 mM HEPES pH 7.5, 50 mM NaCl, 0.01% BSA, 0.01% Triton X-100, 2 mM DTT. Test compounds and DMSO vehicle were diluted 1:50 in buffer and a 4 μL volume is transferred to an Alphaplate. 5.5 μL of EP300 protein and 5.5 μL of peptide were added to wells containing 4 μL of various concentrations of test compounds of Formula (I) or DMSO vehicle in an Alphaplate (PerkinElmer GA, USA) and incubated for 1 hour at room temperature. 5 μL donor and acceptor bead mixture was then added with final concentrations of 7.5 μg/ml. 60 minutes after bead addition, Alpha signal is read on the Envision spectrometer (λEx 680 nm, λEm 520-620 nm). Final concentrations of bromodomain proteins and peptide are as shown below.
All data were normalized to the mean of 16 high and 16 low control wells on each plate. A four parameter curve fit of the following formula was then applied: Y=A+((B−A)/(1+((C/x)^D))) Where ‘A’ is the minimum, ‘B’ is the maximum, ‘C’ is the IC50 and ‘D’ is the Hill slope. Protein Expression and Purification
Recombinant human EP300 bromodomain (EP300-BD (1040-1161)) was expressed in E. coli cells (in a modified pET vector) with an N-terminal six-His tag and purified using a combination of both IMAC (Ni-affinity) and size exclusion chromatography steps.
Recombinant EP300 protein was expressed using the E. coli strain BL21-CodonPlus (DE3) (Agilent Technologies CA, USA). Cells were grown in Terrific Broth (TB) media to an OD600 of 0.7 at 37° C. at which temperature was reduced to 18° C., protein was induced with 1.0 mM isopropyl-β-D-thiogalactopyranoside (“IPTG”) for 20 hours and harvested by centrifugation at 8500×g for 20 minutes. Cells were re-suspended in 0.1M K2PO4 pH 8.0, 250 mM NaCl, 10% Glycerol, 0.75% NP-40, 25 mM Imidazole, with 0.2 mg/ml Lysozyme, 0.2 mM phenylmethanesulfonyl fluoride (“PMSF”), 25 μg/ml DNase I, incubated on ice for 30 minutes and lysed with a cell disruptor (MicroFluidics MA, USA). The lysate was clarified by centrifugation at 20,000×g for 1 hour. The protein was captured with Ni-NTA resin (Life Technologies, USA). Contaminating proteins were washed off with 50 mM HEPES pH 7.5, 500 mM NaCl, and 5% Glycerol. Following 3× wash steps, protein was eluted step wise using 10, 25, 50, 100, 150, and 250 mM Imidazole in 50 mM HEPES pH 7.5, 500 mM NaCl, and 5% glycerol. The protein was further purified using a size exclusion column (26/600 Superdex 200, GE Biosciences NJ, USA) in 10 mM HEPES pH 7.5, […].
A general note: Alpha assays give light when donor and acceptor beads are brought close together.
As for `COc1cc(C(=O)O)cc(OCc2ccccc2)c1-c1cn([C@@H](C)c2ccccn2)c2ncc(-c3c(C)noc3C)cc12` [P-0135, (S)-3-(benzyloxy)-4-(5-(3,5-dimethylisoxazol-4-yl)-1-(1-(pyridin-2-yl)ethyl)-1H-pyrrolo[2,3-b]pyridin-3-yl)-5-methoxybenzoic acid], the pIC50 (commonly −log10 of the IC50, conventionally taken in molar units) is 6.00 to 10.00.

Take `COc1c(C(=O)O)cccc1-c1cn(C(C)c2ccccc2)c2cc(-c3c(C)noc3C)cnc12` (stereo not shown) [P-0136, 3-(6-(3,5-dimethylisoxazol-4-yl)-1-(1-phenylethyl)-1H-pyrrolo[3,2-b]pyridin-3-yl)-2-methoxybenzoic acid]: the pIC50 is 6.00 to 10.00.

For the compound `Cc1noc(C)c1-c1cnc2c(c1)c(-c1ccc(C(=O)O)cc1OC1COC1)cn2[C@@H](C)c1ccccn1` [P-0137, (S)-4-(5-(3,5-dimethylisoxazol-4-yl)-1-(1-(pyridin-2-yl)ethyl)-1H-pyrrolo[2,3-b]pyridin-3-yl)-3-(oxetan-3-yloxy)benzoic acid], the pIC50 is 6.00 to 10.00.

In the case of `Cc1noc(C)c1-c1cnc2c(c1)c(-c1ccc(C(=O)O)cc1OCC1CC1)cn2[C@@H](C)c1ccccn1` [P-0138, (S)-3-(cyclopropylmethoxy)-4-(5-(3,5-dimethylisoxazol-4-yl)-1-(1-(pyridin-2-yl)ethyl)-1H-pyrrolo[2,3-b]pyridin-3-yl)benzoic acid], the pIC50 was 6.00 to 10.00.

Take `Cc1noc(C)c1-c1cnc2c(c1)c(-c1ccc(C(=O)O)cc1OCc1ccccc1)cn2[C@@H](C)c1ccccn1` [P-0139, (S)-3-(benzyloxy)-4-(5-(3,5-dimethylisoxazol-4-yl)-1-(1-(pyridin-2-yl)ethyl)-1H-pyrrolo[2,3-b]pyridin-3-yl)benzoic acid]: the pIC50 was 6.00 to 10.00.

Take `COc1ccc(C(=O)O)cc1-c1cn(C(C)c2ccccc2)c2cc(-c3c(C)noc3C)cnc12` (stereo not shown) [P-0140, 3-(6-(3,5-dimethylisoxazol-4-yl)-1-(1-phenylethyl)-1H-pyrrolo[3,2-b]pyridin-3-yl)-4-methoxybenzoic acid]: the pIC50 was 6.00 to 10.00.

As for `Cc1noc(C)c1-c1cnc2c(-c3cc(C(=O)O)ccc3Cl)cn(C(C)c3ccccc3)c2c1` (stereo not shown) [P-0141, 4-chloro-3-(6-(3,5-dimethylisoxazol-4-yl)-1-(1-phenylethyl)-1H-pyrrolo[3,2-b]pyridin-3-yl)benzoic acid], the pIC50 was 6.00 to 10.00.

On to `COc1cc(C(=O)O)ccc1-c1cn([C@@H](C)c2ccccn2)c2cc(-c3c(C)noc3C)cnc12` [P-0142, (S)-4-(6-(3,5-dimethylisoxazol-4-yl)-1-(1-(pyridin-2-yl)ethyl)-1H-pyrrolo[3,2-b]pyridin-3-yl)-3-methoxybenzoic acid], for which the negative logarithm of the IC50 (pIC50) was 6.00 to 10.00.

With `Cc1noc(C)c1-c1cnc2c(CC3CCC3)cn(-c3ccc(O)nc3)c2c1` [P-0143, 5-(3-(cyclobutylmethyl)-6-(3,5-dimethylisoxazol-4-yl)-1H-pyrrolo[3,2-b]pyridin-1-yl)pyridin-2-ol], the pIC50 was 5.10 to 6.00.

Turning to `COc1cc(C(=O)O)cc(O)c1-c1cn([C@@H](C)c2ccccn2)c2ncc(-c3c(C)noc3C)cc12` [P-0144, (S)-4-(5-(3,5-dimethylisoxazol-4-yl)-1-(1-(pyridin-2-yl)ethyl)-1H-pyrrolo[2,3-b]pyridin-3-yl)-3-hydroxy-5-methoxybenzoic acid], the pIC50 was 6.00 to 10.00.

As to `Cc1noc(C)c1-c1cnc2c(c1)c(-c1ccnc(O)c1)cn2[C@@H](C)c1ccccn1` [P-0145, (S)-4-(5-(3,5-dimethylisoxazol-4-yl)-1-(1-(pyridin-2-yl)ethyl)-1H-pyrrolo[2,3-b]pyridin-3-yl)pyridin-2-ol], the pIC50 is 5.10 to 6.00.

On to `COc1cc(C(=O)O)cc(OC)c1-c1cn([C@@H](C)c2ccccn2)c2cc(-c3c(C)noc3C)cnc12` [P-0146, (S)-4-(6-(3,5-dimethylisoxazol-4-yl)-1-(1-(pyridin-2-yl)ethyl)-1H-pyrrolo[3,2-b]pyridin-3-yl)-3,5-dimethoxybenzoic acid], for which the pIC50 was 5.10 to 6.00.

As to `CCOc1cc(C(=O)O)cc(OCC)c1-c1cn([C@@H](C)c2ccccn2)c2ncc(-c3c(C)noc3C)cc12` [P-0147, (S)-4-(5-(3,5-dimethylisoxazol-4-yl)-1-(1-(pyridin-2-yl)ethyl)-1H-pyrrolo[2,3-b]pyridin-3-yl)-3,5-diethoxybenzoic acid], the pIC50 is 6.00 to 10.00.

With `CC[C@@H](c1ccccn1)n1cc(-c2cc(C(=O)O)ccc2Cl)c2ncc(-c3c(C)noc3C)cc21` [P-0148, (S)-4-chloro-3-(6-(3,5-dimethylisoxazol-4-yl)-1-(1-(pyridin-2-yl)propyl)-1H-pyrrolo[3,2-b]pyridin-3-yl)benzoic acid], the pIC50 was 6.00 to 10.00.

As for `Cc1noc(C)c1-c1cc2c(cn1)c(CC1CCC1)cn2-c1c(Cl)cc(C(=O)O)cc1Cl` [P-0149, 3,5-dichloro-4-(3-(cyclobutylmethyl)-6-(3,5-dimethylisoxazol-4-yl)-1H-pyrrolo[3,2-c]pyridin-1-yl)benzoic acid], the pIC50 was 6.00 to 10.00.

For `Cc1noc(C)c1-c1cnc2c(-c3ccccc3)cn(-c3c(Cl)cc(C(=O)O)cc3Cl)c2c1` [P-0150, 3,5-dichloro-4-(6-(3,5-dimethylisoxazol-4-yl)-3-phenyl-1H-pyrrolo[3,2-b]pyridin-1-yl)benzoic acid], the pIC50 was 6.00 to 10.00.

As for `Cc1noc(C)c1-c1cnc2c(C3=CCOCC3)cn(-c3c(Cl)cc(C(=O)O)cc3Cl)c2c1` [P-0151, 3,5-dichloro-4-(3-(3,6-dihydro-2H-pyran-4-yl)-6-(3,5-dimethylisoxazol-4-yl)-1H-pyrrolo[3,2-b]pyridin-1-yl)benzoic acid], the pIC50 was 6.00 to 10.00.

Turning to `COc1cc(C(=O)O)cc(OCC2CC2)c1-c1cn([C@@H](C)c2ccccn2)c2ncc(-c3c(C)noc3C)cc12` [P-0152, (S)-3-(cyclopropylmethoxy)-4-(5-(3,5-dimethylisoxazol-4-yl)-1-(1-(pyridin-2-yl)ethyl)-1H-pyrrolo[2,3-b]pyridin-3-yl)-5-methoxybenzoic acid], the pIC50 was 6.00 to 10.00.

Regarding `COc1cc(C(=O)O)cc(OCC(F)(F)F)c1-c1cn([C@@H](C)c2ccccn2)c2ncc(-c3c(C)noc3C)cc12` [P-0153, (S)-4-(5-(3,5-dimethylisoxazol-4-yl)-1-(1-(pyridin-2-yl)ethyl)-1H-pyrrolo[2,3-b]pyridin-3-yl)-3-methoxy-5-(2,2,2-trifluoroethoxy)benzoic acid], the pIC50 was 6.00 to 10.00.

As to `Cc1noc(C)c1-c1cnc2c(-c3ccc(C(=O)O)cc3)c(C(F)(F)F)n([C@@H](C)c3ccccn3)c2c1` [P-0154, (S)-4-(6-(3,5-dimethylisoxazol-4-yl)-1-(1-(pyridin-2-yl)ethyl)-2-(trifluoromethyl)-1H-pyrrolo[3,2-b]pyridin-3-yl)benzoic acid], the negative-log IC50 (pIC50) was 6.00 to 10.00.

`Cc1noc(C)c1-c1cnc2c(-c3ccccc3Cl)cn(C(C)(c3ccccn3)c3ccccn3)c2c1` [P-0155, 4-(3-(2-chloropheny1)-1-(1,1-di(pyridin-2-yl)ethyl)-1H-pyrrolo[3,2-b]pyridin-6-yl)-3,5-dimethylisoxazole]: the pIC50 is 6.00 to 10.00.

For the compound `Cc1noc(C)c1-c1cnc2c(c1)c(-c1ccc(C(=O)O)cc1OC(F)(F)F)cn2C(C1CC1)C1CC1` [P-0156, 4-(1-(dicyclopropylmethyl)-5-(3,5-dimethylisoxazol-4-yl)-1H-pyrrolo[2,3-b]pyridin-3-yl)-3-(trifluoromethoxy)benzoic acid], the pIC50 was 6.00 to 10.00.
